“Also recorded” adds a separate entry of the source.
Tests used:
[1] = test system: serum proteins (FBS); assay: in vitro; format: in vitro ADME; conditions: bovine
Description: Evaluated next were the serum protein binding capabilities of Au-GSH cluster and Au-PC conjugate with FBS and compared to that of ICG. Briefly, the clusters and ICG were incubated with FBS for 1 h at 37° C. (FIG. 12). Afterwards, the solutions were filtered using Amicon 50 kDa centrifuge filters (FIGS. 12A and 12B). Au clusters bound to serum proteins will not pass filter while free unbound clusters will be lost to the filtrate. The optical density (OD) of filtrate (in case of Au-GSH and Au-PC) and retentate (in case of ICG) at 808 nm were measured and the corresponding serum protein binding efficiencies were calculated (FIG. 12C). The schematics of the experiments, figures, and absorbance values of Au-GSH+FBS and Au-PC+FBS filtrates as well as ICG+FBS retentate can be found in FIG. 12. The serum protein binding efficiencies for Au-GSH cluster, Au-PC conjugate and ICG were calculated to be 2.7%, 1.74% and 94.5%, respectively.

[2] = test system: mice bearing syngeneic 4T1 murine breast tumors; assay: NIR-II lymph node imaging after intra-/peri-tumoral injection, 4T1 tumors; format: in vivo, mouse
Description: For lymph node imaging, intra-tumor/peri-tumor administration (i.t.) of Au-PC clusters to mice (5-7 weeks old female Balb/c, n=3 in each group) bearing syngeneic 4T1 murine breast tumors and CT26 colon tumors inoculated on hindlimbs was performed. Several doses of Au-PC probes, including 4× (˜1.2 mg, tumors on both hindlimbs), 1× (˜300 μg, tumor on the right hindlimb) and ⅓× (˜100 μg, tumor on the right hindlimb) were administered (FIG. 3A, FIGS. 16 and 17). The draining inguinal lymph nodes (iLN) started to show NIR-II emission of Au-PC within ˜1 min p.i. and reached high brightness within ˜3 min p.i. (FIG. 3A, FIG. 17 for 4T1; FIG. 12A for CT26 tumor). The LN signal persisted for over 1 h in the draining iLNs (FIG. 3A) after reaching peak intensity at ˜30 min p.i., with a LN/background signal ratio ˜5-10 (FIG. 3D, FIG. 12D). […] The signal completely disappeared after […] p.i. of the Au-PC probe. The Au-PC clusters afforded rapid and effective imaging/detection of the primary tier draining LNs with much weaker signals in higher tier nodes.
3-9-week-old BALB/c female mice (weight: 15-20 g) were purchased from Charles River. The mice were housed on a 12-hour light/12-hour dark at ambient temperature =20-25° C. and humidity=50-65% in Stanford University's Veterinary Service Center. The bedding, nesting material, food and water were provided by the Stanford VSC facility. Prior to each experiment, the mice were shaved using hair-removing lotion (Nair, Softening Baby Oil). For in vivo imaging, the mice were anaesthetized by 2.5% isoflurane and oxygen as a carrying gas at a flow rate of 2 L/min. Per animal care protocols, the mice were carefully monitored during the imaging process and postrecovery period. The experimental groups consisted of n=3 mice. […]
The animal experiments and imaging in the NIR-II window were conducted in a two-dimensional, water-cooled 640×512 InGaAs array (Ninox 640, Raptor Photonics). […] NIR-II fluorescence images were recorded at 3 min, 10 min, 30 min, 1 h, 3 h, 6 h, 24 h, 48 h p.i.

[3] = test system: Balb/c mice; assay: In vivo NIR-II fluorescence imaging after intravenous injection; design: species or system mouse; conditions: i.v. injection, up to 24 h p.i.
Description: In vivo, the Au-GSH and Au-PC clusters dissolved in PBS were first intravenously (i.v.) administered to mice (5-7 weeks old female Balb/c, n=3 in each group) through tail-vein injection, imaged in the >1100 nm NIR-II window and compared side by side with the clinically approved ICG dye. The bladder NIR-II signals in mice rapidly lit up, at ˜3 min postinjection (p.i) (FIG. 2A, 2B ventral view), as a consequence of kidney drainage for fast renal clearance (dorsal/lateral view images in FIGS. 13A and 14A, respectively).
(§1) The animal experiments and imaging in the NIR-II window were conducted in a two-dimensional, water-cooled 640×512 InGaAs array (Ninox 640, Raptor Photonics). The clusters were excited by an 808-nm continuous-wave diode laser at a power density of 70 mW/cm^2. 1100 nm long-pass filter was used in all the imaging experiments unless stated otherwise. The fluorescent probes were administered through tail vein (intravenous, i.v.), tail base (subcutaneous, s.c.) and (peri)intratumoral (i.t.). NIR-II fluorescence images were recorded at 3 min, 10 min, 30 min, 1 h, 3 h, 6 h, 24 h, 48 h p.i.

[4] = Excretion by ICP-MS after intra-tumoral injection; format: in vivo, mouse; conditions: i.t. injection
Description: The biodistribution of probes was analyzed 10 min, 30 min, 24 h or 48 h postadministration. The urine, feces and major organs including the liver, spleen, heart, lungs, and kidneys were collected and digested in nitric acid (68%) for 12 h. Afterwards, the solutions were heated to 150° C. in the digestion solution (nitric acid:hydrogen peroxide=4:1) until transparent and colorless solution was obtained. The concentration of gold in each sample was measured by ICP-MS (Thermo Scientific ICAP 6300 Duo View Spectrometer).

[5] = test system: Balb/c mice; assay: NIR-II lymph node imaging after subcutaneous injection at tail base; format: in vivo, mouse; conditions: s.c. tail base
Description: Investigated next was LN draining post subcutaneous (s.c.) injection of the three probes at the mouse tail base (FIG. 5) (5-7 weeks old female Balb/c, n=3 in each group). The Au-PC clusters within 3 min p.i. migrated to the lymphatic vessels connecting the injection site to the draining iLN (FIG. 5A and FIG. 23). Strong signals in the iLN were seen up to 1 h and decreased by ˜40% 2 h p.i. (FIG. 5D). […] In contrast, upon ICG administration (FIG. 5C), the fluorescent signal in iLN appeared 3 min p.i. but with an intensity much lower compared to that of Au-PC probe at the same time postinjection (FIG. 5F). After 2-3 h p.i. (or even later) ICG signal in the iLN reached peak intensity and persisted. […] The retention of ICG at the injection site persisted over an extended period of time (FIG. 5F) much longer than Au-PC. The Au-PC molecular clusters were also unique with little retention at subcutaneous injection sites among various nanomaterials (with well-coated hydrophilic layers such as PEG) including quantum dots (QDs), carbon nanotubes (CNTs) and organic NIR II dyes^67,68. The trapping of NIR-II probes at the injection site and staining it for weeks is undesirable due to potential long-term side effects.
as §1

fraction unbound at 1 h [1]: 0.055
time of peak lymph node intensity ([2]; i.t. injection into 4T1 tumor): 2 to 3 h
excretion route [4]: liver excretory system
time fluorescent signal in iLN appeared [5]: 3 min
time of iLN signal peak [5]: 2 to 3 h
SMILES: CC1(C)C(/C=C/C=C/C=C/C=C2\N(CCCCS(=O)(=O)O)c3ccc4ccccc4c3C2(C)C)=[N+](CCCCS(=O)(=O)[O-])c2ccc3ccccc3c21 [ICG, indocyanine green]
signal at tumor injection site 24 h p.i. ([2]; i.t. injection): significant signals were still detected at the tumor injection sites
LN/background (LN/B) signal ratio ([2]; i.t. injection, 4T1 tumors, at peak intensity): 4
NIR-II signal distribution and retention in organs [3]: strong NIR-II signals were observed in liver and intestine; also recorded: no significant ICG retention in major organs
signal retention at 24 h p.i. [5]: significant signal still remained in the lymph node, at the injection site and in the liver

From US20230248850A1, “GOLD MOLECULAR CLUSTERS AND METHODS OF USING SAME FOR NEAR-INFRARED IMAGING” (The Board of Trustees of the Leland Stanford Junior …, priority 2022, published 2023)
